Measured values published in US11957687B2 (REGENERON PHARMACEUTICALS, INC., priority 2019, dated 2024).
Values joined by “and” are separate entries in the source; they are usually repeats but may differ in a detail not shown here. Equal values may be shown once.

Target: HSD17B13 (Homo sapiens (Human), UniProt Q7Z5P4)
Assay: HSD17B13 enzymatic inhibition assay (150 nM or 50 nM HSD17B13)
Type: biochemical
Conditions: 50 nM HSD17B13; read-out: Inhibition of 50 nM of HSD17B13 IC50

Chain of HSD17B13 (Q7Z5P4 other isoform, or with tags, fused parts or gaps): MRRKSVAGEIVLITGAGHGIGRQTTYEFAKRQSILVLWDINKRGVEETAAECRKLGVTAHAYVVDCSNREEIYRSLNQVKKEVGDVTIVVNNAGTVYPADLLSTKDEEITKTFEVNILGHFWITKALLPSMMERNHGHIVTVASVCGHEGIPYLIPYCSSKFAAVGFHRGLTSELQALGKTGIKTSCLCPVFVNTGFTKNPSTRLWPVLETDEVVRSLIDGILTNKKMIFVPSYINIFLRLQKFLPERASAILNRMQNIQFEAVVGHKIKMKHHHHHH

| SMILES | IC50 |
| --- | --- |
| O=C(NC(c1ccccc1)c1ccc(C2CCOC2)cc1)c1ccc(C(F)(F)F)[nH]c1=O (centres unmarked) [Compound 86, N-(phenyl(4-(tetrahydrofuran-3-yl)phenyl)methyl)-2-oxo-6-(trifluoromethyl)-1,2-dihydropyridine-3-carboxamide] | 1.94 µM |
| O=C(NC(c1ccccc1)c1ccc(C2=CCOC2)cc1)c1ccc(C(F)(F)F)[nH]c1=O (centres unmarked) [Compound 87, N-((4-(2,5-dihydrofuran-3-yl)phenyl)(phenyl)methyl)-2-oxo-6-(trifluoromethyl)-1,2-dihydropyridine-3-carboxamide] | 1.13 µM |
| O=C(NC(c1ccccc1)c1ccc(N2CCNCC2)cc1)c1ccc(C(F)(F)F)[nH]c1=O (centres unmarked) [Compound 88, N-(phenyl(4-(piperazin-1-yl)phenyl)methyl)-2-oxo-6-(trifluoromethyl)-1,2-dihydropyridine-3-carboxamide] | > 10 µM |
| O=C(NC(c1ccccc1)c1ccc2c(c1)OCCC2)c1ccc(C(F)(F)F)[nH]c1=O (centres unmarked) [Compound 89, N-(chroman-7-yl(phenyl)methyl)-2-oxo-6-(trifluoromethyl)-1,2-dihydropyridine-3-carboxamide] | 1.09 µM |
| O=C(NC(c1ccccc1)c1ccc(-c2cncnc2)cc1)c1ccc(C(F)(F)F)[nH]c1=O (centres unmarked) [Compound 92, N-(phenyl(4-(pyrimidin-5-yl)phenyl)methyl)-2-oxo-6-(trifluoromethyl)-1,2-dihydropyridine-3-carboxamide] | 2.14 µM |
| CN1CCN(c2ccc(C(NC(=O)c3ccc(C(F)(F)F)[nH]c3=O)c3ccccc3)cc2)CC1 (centres unmarked) [Compound 95, N-((4-(4-methylpiperazin-1-yl)phenyl)(phenyl)methyl)-2-oxo-6-(trifluoromethyl)-1,2-dihydropyridine-3-carboxamide] | 1.46 µM and 0.35 µM |
| O=C(NC(c1ccccc1)c1ccc(N2CCN(CC(F)(F)F)CC2)cc1)c1ccc(C(F)(F)F)[nH]c1=O (centres unmarked) [Compound 96, N-(phenyl(4-(4-(2,2,2-trifluoroethyl)piperazin-1-yl)phenyl)methyl)-2-oxo-6-(trifluoromethyl)-1,2-dihydropyridine-3-carboxamide] | 1.74 µM |
| O=C(NC(c1ccccc1)c1ccc(-c2ncccn2)cc1)c1ccc(C(F)(F)F)[nH]c1=O (centres unmarked) [Compound 97, 2-oxo-N-(phenyl(4-(pyrimidin-2-yl)phenyl)methyl)-6-(trifluoromethyl)-1,2-dihydropyridine-3-carboxamide] | 2.3 µM |
| NCc1ccc(C(NC(=O)c2ccc(C(F)(F)F)[nH]c2=O)c2ccccc2)cc1 (centres unmarked) [Compound 98, N-((4-(aminomethyl)phenyl)(phenyl)methyl)-2-oxo-6-(trifluoromethyl)-1,2-dihydropyridine-3-carboxamide] | > 10 µM |
| O=C(NC(c1ccccc1)c1ccc(C2COC2)cc1)c1ccc(C(F)(F)F)[nH]c1=O (centres unmarked) [Compound 99, N-((4-(oxetan-3-yl)phenyl)(phenyl)methyl)-2-oxo-6-(trifluoromethyl)-1,2-dihydropyridine-3-carboxamide] | 2.72 µM |
| O=C(NC(c1ccccc1)c1ccc(-c2cnccn2)cc1)c1ccc(C(F)(F)F)[nH]c1=O (centres unmarked) [Compound 101, 2-oxo-N-(phenyl(4-(pyrazin-2-yl)phenyl)methyl)-6-(trifluoromethyl)-1,2-dihydropyridine-3-carboxamide] | 1.23 µM |
| CNCc1ccc(C(NC(=O)c2ccc(C(F)(F)F)[nH]c2=O)c2ccccc2)cc1 (centres unmarked) [Compound 102, N-((4-((methylamino)methyl)phenyl) (phenyl)methyl)-2-oxo-6-(trifluoromethyl)-1,2-dihydropyridine-3-carboxamide] | > 10 µM |
| CN(C)Cc1ccc(C(NC(=O)c2ccc(C(F)(F)F)[nH]c2=O)c2ccccc2)cc1 (centres unmarked) [Compound 103, N-((4-((dimethylamino)methyl)phenyl)(phenyl)methyl)-2-oxo-6-(trifluoromethyl)-1,2-dihydropyridine-3-carboxamide] | > 10 µM |
| O=C(NC(c1ccccc1)c1ccc(C2CCNCC2)cc1)c1ccc(C(F)(F)F)[nH]c1=O (centres unmarked) [Compound 104, 2-oxo-N-(phenyl(4-(piperidin-4-yl)phenyl)methyl)-6-(trifluoromethyl)-1,2-dihydropyridine-3-carboxamide] | 8.65 µM |
| O=C(NC(c1ccccc1)c1ccc(C2=CCNCC2)cc1)c1ccc(C(F)(F)F)[nH]c1=O (centres unmarked) [Compound 105, 2-oxo-N-(phenyl(4-(1,2,3,6-tetrahydropyridin-4-yl)phenyl)methyl)-6-(trifluoromethyl)-1,2-dihydropyridine-3-carboxamide] | 4.28 µM |
| CN1CCC(c2ccc(C(NC(=O)c3ccc(C(F)(F)F)[nH]c3=O)c3ccccc3)cc2)CC1 (centres unmarked) [Compound 106, N-((4-(1-methylpiperidin-4-yl)phenyl)(phenyl)methyl)-2-oxo-6-(trifluoromethyl)-1,2-dihydropyridine-3-carboxamide] | > 10 µM |
| O=C(NC(c1ccccc1)c1ccc2c(c1)CNCC2)c1ccc(C(F)(F)F)[nH]c1=O (centres unmarked) [Compound 108, 2-oxo-N-(phenyl(1,2,3,4-tetrahydroisoquinolin-7-yl)methyl)-6-(trifluoromethyl)-1,2-dihydropyridine-3-carboxamide] | > 10 µM |
| O=C(NC(c1ccccc1)c1ccc2c(c1)CCNC2)c1ccc(C(F)(F)F)[nH]c1=O (centres unmarked) [Compound 112, 2-oxo-N-(phenyl(1,2,3,4-tetrahydroisoquinolin-6-yl)methyl)-6-(trifluoromethyl)-1,2-dihydropyridine-3-carboxamide] | > 10 µM |
| O=C(NC(c1ccccc1)c1ccc2c(c1)CNC2)c1ccc(C(F)(F)F)[nH]c1=O (centres unmarked) [Compound 113, N-(isoindolin-5-yl(phenyl)methyl)-2-oxo-6-(trifluoromethyl)-1,2-dihydropyridine-3-carboxamide] | > 10 µM |
| Cc1ccc(C(NC(=O)c2cc(C(F)(F)F)c[nH]c2=O)c2ccc(C)cc2)cc1 [Compound 116, N-(di-p-tolylmethyl)-2-oxo-5-(trifluoromethyl)-1,2-dihydropyridine-3-carboxamide] | > 10 µM |
| Cc1ccc(C(NC(=O)c2cc(C)c(C(F)F)[nH]c2=O)c2ccc(C)cc2)cc1 [Compound 117, N-(di-p-tolylmethyl)-6-(difluoromethyl)-5-methyl-2-oxo-1,2-dihydropyridine-3-carboxamide] | > 10 µM |
| Cc1ccc(C(NC(=O)c2c(C(F)(F)F)cc[nH]c2=O)c2ccc(C)cc2)cc1 [Compound 122, N-(di-p-tolylmethyl)-2-oxo-4-(trifluoromethyl)-1,2-dihydropyridine-3-carboxamide] | > 10 µM |
| Cc1cc(C(F)(F)F)[nH]c(=O)c1C(=O)NC(c1ccccc1)c1ccccc1 [Compound 123, N-benzhydryl-4-methyl-2-oxo-6-(trifluoromethyl)-1,2-dihydropyridine-3-carboxamide] | 5.79 µM |
| Cc1cc(C(F)(F)F)[nH]c(=O)c1C(=O)NC(c1ccccc1)c1ccc(Cl)cc1 (centres unmarked) [Compound 124, N-((4-chlorophenyl)(phenyl)methyl)-4-methyl-2-oxo-6-(trifluoromethyl)-1,2-dihydropyridine-3-carboxamide] | 1.4 µM |

The next lines start with the values.

| IC50 | SMILES |
| --- | --- |
| 0.52 µM | O=C(NC(c1ccccc1)c1ccc2c(c1)CCC2)c1ccc(C(F)(F)F)[nH]c1=O (centres unmarked) [Compound 90, N-((2,3-dihydro-1H-inden-5-yl)(phenyl)methyl)-2-oxo-6-(trifluoromethyl)-1,2-dihydropyridine-3-carboxamide] |
| 0.92 µM | O=C(NC(c1ccccc1)c1ccc2c(c1)CCO2)c1ccc(C(F)(F)F)[nH]c1=O (centres unmarked) [Compound 91, N-((2,3-dihydrobenzofuran-5-yl)(phenyl)methyl)-2-oxo-6-(trifluoromethyl)-1,2-dihydropyridine-3-carboxamide] |
| 0.74 µM | O=C(NC(c1ccccc1)c1ccc(-c2ccccn2)cc1)c1ccc(C(F)(F)F)[nH]c1=O (centres unmarked) [Compound 100, 2-oxo-N-(phenyl(4-(pyridin-2-yl)phenyl)methyl)-6-(trifluoromethyl)-1,2-dihydropyridine-3-carboxamide] |
| 0.96 µM | O=C(NC(c1ccccc1)c1ccc2c(c1)CCCN2)c1ccc(C(F)(F)F)[nH]c1=O (centres unmarked) [Compound 107, 2-oxo-N-(phenyl(1,2,3,4-tetrahydroquinolin-6-yl)methyl)-6-(trifluoromethyl)-1,2-dihydropyridine-3-carboxamide] |
| 0.82 µM | O=C(NC(c1ccccc1)c1ccc(CO)cc1)c1ccc(C(F)(F)F)[nH]c1=O (centres unmarked) [Compound 109, N-((4-(hydroxymethyl)phenyl) (phenyl)methyl)-2-oxo-6-(trifluoromethyl)-1,2-dihydropyridine-3-carboxamide] |
| 0.84 µM | O=C(NC(c1ccccc1)c1ccc2c(c1)NCCC2)c1ccc(C(F)(F)F)[nH]c1=O (centres unmarked) [Compound 110, 2-oxo-N-(phenyl(1,2,3,4-tetrahydroquinolin-7-yl)methyl)-6-(trifluoromethyl)-1,2-dihydropyridine-3-carboxamide] |
| 0.28 µM | O=C(NC(c1ccccc1)c1ccc(C2CCN(CC(F)(F)F)CC2)cc1)c1ccc(C(F)(F)F)[nH]c1=O (centres unmarked) [Compound 114, 2-oxo-N-(phenyl(4-(1-(2,2,2-trifluoroethyl)piperidin-4-yl)phenyl)methyl)-6-(trifluoromethyl)-1,2-dihydropyridine-3-carboxamide] |
| 0.3 µM | C=Cc1cc(C(=O)NC(c2ccc(C)cc2)c2ccc(C)cc2)c(=O)[nH]c1C(F)(F)F [Compound 118, N-(di-p-tolylmethyl)-2-oxo-6-(trifluoromethyl)-5-vinyl-1,2-dihydropyridine-3-carboxamide] |
| 0.25 µM | CCc1cc(C(=O)NC(c2ccc(C)cc2)c2ccc(C)cc2)c(=O)[nH]c1C(F)(F)F [Compound 119, N-(di-p-tolylmethyl)-5-ethyl-2-oxo-6-(trifluoromethyl)-1,2-dihydropyridine-3-carboxamide] |
| 0.87 µM | Cc1ccc(C(NC(=O)c2cc(CCO)c(C(F)(F)F)[nH]c2=O)c2ccc(C)cc2)cc1 [Compound 120, N-(di-p-tolylmethyl)-5-(2-hydroxyethyl)-2-oxo-6-(trifluoromethyl)-1,2-dihydropyridine-3-carboxamide] |
| 0.22 µM | C=CCc1cc(C(=O)NC(c2ccc(C)cc2)c2ccc(C)cc2)c(=O)[nH]c1C(F)(F)F [Compound 121, 5-allyl-N-(di-p-tolylmethyl)-2-oxo-6-(trifluoromethyl)-1,2-dihydropyridine-3-carboxamide] |
